# Experimental data taken from paper PMC6979384, “Characterization of the plant homeodomain (PHD) reader family for their histone tail interactions” (Epigenetics & Chromatin, 2020).
# Where no end group is shown, it is not given here. [ ]: non-standard residue; d: D form. Me3 = trimethyl (on lysine side chain); Lys(Me) = CNCCCC[C@H](N)C(=O)O
# Experiments:
# Assay in all cases: Histone peptide microarray
# Assay type in all cases: binding, human
# Details in all cases: sheet "Array Heatmap"
# AIRE (PP) = system: AIRE (PP)
# Outline: (§1)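 Binding read as mean relative signal from 4 replicates; microarray held 293 synthetic histone peptides with single or combinatorial PTMs. Each GST-tagged PHD reader was applied at 0.5 μM using the optimized Petell protocol.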
# BAZ2B = system: BAZ2B
# Outline: as §1
# BPTF (PB) = system: BPTF (PB)
# Outline: as §1
# CHD4 (PPCC) = system: CHD4 (PPCC)
# Outline: as §1
# CHD5 (PCC) = system: CHD5 (PCC)
# Outline: as §1
# CHD5 (PPCC) = system: CHD5 (PPCC)
# Outline: as §1
# DIDO1 = system: DIDO1
# Outline: as §1
# DPF2 (PPC2W2) = system: DPF2 (PPC2W2)
# Outline: as §1
# ING1 = system: ING1
# Outline: as §1
# ING2 = system: ING2
# Outline: as §1
# ING3 = system: ING3
# Outline: as §1
# ING4 = system: ING4
# Outline: as §1
# ING5 = system: ING5
# Outline: as §1
# KDM4C (TTP) = system: KDM4C (TTP)
# Outline: as §1
# KDM5A (1) = system: KDM5A (1)
# Outline: as §1
# KDM5A (3) = system: KDM5A (3)
# Outline: as §1
# KDM5B (1) = system: KDM5B (1)
# Outline: as §1
# KDM5B (3) = system: KDM5B (3)
# Outline: as §1
# KDM7A = system: KDM7A
# Outline: as §1
# MLL5 = system: MLL5
# Outline: as §1
# MORC3 (CW) = system: MORC3 (CW)
# Outline: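 A peptide microarray holding 293 synthetic histone peptides with individual or combinatorial modifications was probed with each GST-PHD protein at 0.5 μM. Values represent mean intensity (±SD) from four replicates.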
# PHF13 = system: PHF13
# Outline: as §1
# PHF21A = system: PHF21A
# Outline: as §1
# PHF23 = system: PHF23
# Outline: as §1
# PHF2 = system: PHF2
# Outline: as §1
# PHF8 = system: PHF8
# Outline: as §1
# PHRF1 (RP) = system: PHRF1 (RP)
# Outline: as §1
# RAG2 = system: RAG2
# Outline: as §1
# SP140L = system: SP140L
# Outline: as §1
# TAF3 = system: TAF3
# Outline: as §1
# TRIM66 (PB) = system: TRIM66 (PB)
# Outline: as §1
# [1] = GST-tagged AIRE (PP), arrays performed twice, total replicate number n = 4
# [2] = GST-tagged BAZ2B, arrays performed twice, total replicate number n = 4
# [3] = GST-tagged BPTF (PB), arrays performed twice, total replicate number n = 4
# [4] = GST-tagged CHD4 (PPCC), arrays performed twice, total replicate number n = 4
# [5] = GST-tagged CHD5 (PCC), arrays performed twice, total replicate number n = 4
# [6] = GST-tagged CHD5 (PPCC), arrays performed twice, total replicate number n = 4
# [7] = GST-tagged DIDO1, arrays performed twice, total replicate number n = 4
# [8] = GST-tagged DPF2 (PPC2W2), arrays performed twice, total replicate number n = 4
# [9] = GST-tagged ING1, arrays performed twice, total replicate number n = 4
# [10] = GST-tagged ING2, arrays performed twice, total replicate number n = 4
# [11] = GST-tagged ING3, arrays performed twice, total replicate number n = 4
# [12] = GST-tagged ING4, arrays performed twice, total replicate number n = 4
# [13] = GST-tagged ING5, arrays performed twice, total replicate number n = 4
# [14] = GST-tagged KDM4C (TTP), arrays performed twice, total replicate number n = 4
# [15] = GST-tagged KDM5A (1), arrays performed twice, total replicate number n = 4
# [16] = GST-tagged KDM5A (3), arrays performed twice, total replicate number n = 4
# [17] = GST-tagged KDM5B (1), arrays performed twice, total replicate number n = 4
# [18] = GST-tagged KDM5B (3), arrays performed twice, total replicate number n = 4
# [19] = GST-tagged KDM7A, arrays performed twice, total replicate number n = 4
# [20] = GST-tagged MLL5, arrays performed twice, total replicate number n = 4
# [21] = GST-tagged MORC3 (CW), arrays performed twice, total replicate number n = 4
# [22] = GST-tagged PHF13, arrays performed twice, total replicate number n = 4
# [23] = GST-tagged PHF21A, arrays performed twice, total replicate number n = 4
# [24] = GST-tagged PHF23, arrays performed twice, total replicate number n = 4
# [25] = GST-tagged PHF2, arrays performed twice, total replicate number n = 4
# [26] = GST-tagged PHF8, arrays performed twice, total replicate number n = 4
# [27] = GST-tagged PHRF1 (RP), arrays performed twice, total replicate number n = 4
# [28] = GST-tagged RAG2, arrays performed twice, total replicate number n = 4
# [29] = GST-tagged SP140L, arrays performed twice, total replicate number n = 4
# [30] = GST-tagged TAF3, arrays performed twice, total replicate number n = 4
# [31] = GST-tagged TRIM66 (PB), arrays performed twice, total replicate number n = 4
# [32] = GST-tagged reader, histone peptide array, total n = 4
substance,measurement,setting,value
"H3K56ac (52-61): H3 52-61 (RRYQK(Ac)STELL; UniProt P68431 53-62, looked up, fragment)","Array Heatmap signal, AIRE (PP)",AIRE (PP); [1],0.4476
same,"Array Heatmap signal, BAZ2B",BAZ2B; [2],0.4578
same,"Array Heatmap signal, BPTF (PB)",BPTF (PB); [3],0.3515
same,"Array Heatmap signal, CHD4 (PPCC)",CHD4 (PPCC); [4],0.5636
same,"Array Heatmap signal, CHD5 (PCC)",CHD5 (PCC); [5],0.7293
same,"Array Heatmap signal, CHD5 (PPCC)",CHD5 (PPCC); [6],0.5505
same,"Array Heatmap signal, DIDO1",DIDO1; [7],0.7019
same,"Array Heatmap signal, DPF2 (PPC2W2)",DPF2 (PPC2W2); [8],0.7093
same,"Array Heatmap signal, ING1",ING1; [9],0.5577
same,"Array Heatmap signal, ING2",ING2; [10],0.6013
same,"Array Heatmap signal, ING3",ING3; [11],0.475
same,"Array Heatmap signal, ING4",ING4; [12],0.4689
same,"Array Heatmap signal, ING5",ING5; [13],0.365
same,"Array Heatmap signal, KDM4C (TTP)",KDM4C (TTP); [14],0.4844
same,"Array Heatmap signal, KDM5A (1)",KDM5A (1); [15],0.4791
same,"Array Heatmap signal, KDM5A (3)",KDM5A (3); [16],0.4545
same,"Array Heatmap signal, KDM5B (1)",KDM5B (1); [17],0.5943
same,"Array Heatmap signal, KDM5B (3)",KDM5B (3); [18],0.4628
same,"Array Heatmap signal, KDM7A",KDM7A; [19],0.3406
same,"Array Heatmap signal, MLL5",MLL5; [20],0.5378
same,"Array Heatmap signal, MORC3 (CW)",MORC3 (CW); [21],0.3491
same,"Array Heatmap signal, PHF13",PHF13; [22],0.6129
same,"Array Heatmap signal, PHF21A",PHF21A; [23],0.4604
same,"Array Heatmap signal, PHF23",PHF23; [24],0.5106
same,"Array Heatmap signal, PHF2",PHF2; [25],0.5355
same,"Array Heatmap signal, PHF8",PHF8; [26],0.3512
same,"Array Heatmap signal, PHRF1 (RP)",PHRF1 (RP); [27],0.4575
same,"Array Heatmap signal, RAG2",RAG2; [28],0.2388
same,"Array Heatmap signal, SP140L",SP140L; [29],0.3649
same,"Array Heatmap signal, TAF3",TAF3; [30],0.2638
same,"Array Heatmap signal, TRIM66 (PB)",TRIM66 (PB); [31],0.5346
"H3K56me3 (52-61): H3 52-61 (RRYQK(Me3)STELL; UniProt P68431 53-62, looked up, fragment)","Array Heatmap signal, AIRE (PP)",AIRE (PP); [1],0.4132
same,"Array Heatmap signal, BAZ2B",BAZ2B; [2],0.4232
same,"Array Heatmap signal, BPTF (PB)",BPTF (PB); [3],0.343
same,"Array Heatmap signal, CHD4 (PPCC)",CHD4 (PPCC); [4],0.5342
same,"Array Heatmap signal, CHD5 (PCC)",CHD5 (PCC); [5],0.7613
same,"Array Heatmap signal, CHD5 (PPCC)",CHD5 (PPCC); [6],0.5162
same,"Array Heatmap signal, DIDO1",DIDO1; [7],0.6681
same,"Array Heatmap signal, DPF2 (PPC2W2)",DPF2 (PPC2W2); [8],0.6082
same,"Array Heatmap signal, ING1",ING1; [9],0.5013
same,"Array Heatmap signal, ING2",ING2; [10],0.5755
same,"Array Heatmap signal, ING3",ING3; [11],0.4641
same,"Array Heatmap signal, ING4",ING4; [12],0.4217
same,"Array Heatmap signal, ING5",ING5; [13],0.3269
same,"Array Heatmap signal, KDM4C (TTP)",KDM4C (TTP); [14],0.4664
same,"Array Heatmap signal, KDM5A (1)",KDM5A (1); [15],0.4335
same,"Array Heatmap signal, KDM5A (3)",KDM5A (3); [16],0.4564
same,"Array Heatmap signal, KDM5B (1)",KDM5B (1); [17],0.6393
same,"Array Heatmap signal, KDM5B (3)",KDM5B (3); [18],0.4529
same,"Array Heatmap signal, KDM7A",KDM7A; [19],0.3588
same,"Array Heatmap signal, MLL5",MLL5; [20],0.5095
same,"Array Heatmap signal, MORC3 (CW)",MORC3 (CW); [21],0.3573
same,"Array Heatmap signal, PHF13",PHF13; [22],0.5794
same,"Array Heatmap signal, PHF21A",PHF21A; [23],0.4399
same,"Array Heatmap signal, PHF23",PHF23; [24],0.5132
same,"Array Heatmap signal, PHF2",PHF2; [25],0.4592
same,"Array Heatmap signal, PHF8",PHF8; [26],0.3607
same,"Array Heatmap signal, PHRF1 (RP)",PHRF1 (RP); [27],0.4158
same,"Array Heatmap signal, RAG2",RAG2; [28],0.2347
same,"Array Heatmap signal, SP140L",SP140L; [29],0.3549
same,"Array Heatmap signal, TAF3",TAF3; [30],0.2469
same,"Array Heatmap signal, TRIM66 (PB)",TRIM66 (PB); [31],0.5682
"H3K79me1: H3 74-84 (IAQDF[Lys(Me)]TDLRF; UniProt P68431 75-85, looked up, fragment) [Peptide H3K79me1]","Array Heatmap signal, AIRE (PP)",AIRE (PP); [32],0.5028
same,"Array Heatmap signal, BAZ2B",BAZ2B; [32],0.4958
same,"Array Heatmap signal, BPTF (PB)",BPTF (PB); [32],0.3836
same,"Array Heatmap signal, CHD4 (PPCC)",CHD4 (PPCC); [32],0.5797
same,"Array Heatmap signal, CHD5 (PCC)",CHD5 (PCC); [32],0.8253
same,"Array Heatmap signal, CHD5 (PPCC)",CHD5 (PPCC); [32],0.6031
same,"Array Heatmap signal, DIDO1",DIDO1; [32],0.782
same,"Array Heatmap signal, DPF2 (PPC2W2)",DPF2 (PPC2W2); [32],0.6501
same,"Array Heatmap signal, ING1",ING1; [32],0.5242
same,"Array Heatmap signal, ING2",ING2; [32],0.6117
same,"Array Heatmap signal, ING3",ING3; [32],0.5268
same,"Array Heatmap signal, ING4",ING4; [32],0.4724
same,"Array Heatmap signal, ING5",ING5; [32],0.4005
same,"Array Heatmap signal, KDM4C (TTP)",KDM4C (TTP); [32],0.5424
same,"Array Heatmap signal, KDM5A (1)",KDM5A (1); [32],0.5083
same,"Array Heatmap signal, KDM5A (3)",KDM5A (3); [32],0.5745
same,"Array Heatmap signal, KDM5B (1)",KDM5B (1); [32],0.6942
same,"Array Heatmap signal, KDM5B (3)",KDM5B (3); [32],0.5123
same,"Array Heatmap signal, KDM7A",KDM7A; [32],0.422
same,"Array Heatmap signal, MLL5",MLL5; [32],0.6083
same,"Array Heatmap signal, MORC3 (CW)",MORC3 (CW); [32],0.4301
same,"Array Heatmap signal, PHF13",PHF13; [32],0.6611
same,"Array Heatmap signal, PHF21A",PHF21A; [32],0.4933
same,"Array Heatmap signal, PHF23",PHF23; [32],0.5609
same,"Array Heatmap signal, PHF2",PHF2; [32],0.4403
same,"Array Heatmap signal, PHF8",PHF8; [32],0.4078
same,"Array Heatmap signal, PHRF1 (RP)",PHRF1 (RP); [32],0.4478
same,"Array Heatmap signal, RAG2",RAG2; [32],0.2827
same,"Array Heatmap signal, SP140L",SP140L; [32],0.3558
same,"Array Heatmap signal, TAF3",TAF3; [32],0.2923
same,"Array Heatmap signal, TRIM66 (PB)",TRIM66 (PB); [32],0.6065
